# From patent US8609091B2, “Method for endocytic presentation of an immunosuppressive for the treatment of type 1 diabetes” (The Curators of the University of Missouri, priority 2002, dated 2013)
# How the values were obtained:
# Assay type in all cases: cell-based, NOD mice
# [1] = system: INSβ-specific T cell line; assay: Presentation to INSβ-specific T cell line ([3H]thymidine proliferation); settings: irradiated NOD splenic APCs; peptides 10 μM, Ig-chimeras 1 μM; 3-day incubation
# Description: T cell lines: A T cell line specific for INSβ peptide was generated by immunizing NOD mice with 100 μg of INSβ peptide in 200 μl PBS/CFA (vol/vol) subcutaneously (“s.c.”) in the footpads and at the base of each limb. After 10 days, the draining lymph nodes were removed, and T cells were stimulated in vitro for 2 rounds in the presence of irradiated (3000 rads), syngenic splenocytes, 5% T-Stim supplement (Collaborative Biomedical Products, Bedford, Mass.), and INSβ peptide (25 μg/ml). […]
# (§1) Presentation of Ig-INSβ chimera to specific T cells was then determined. […] For presentation of INSβ peptide and Ig-INSβ (FIGS. 2(a) and 2(b) respectively), the activation was assessed by [^3H] thymidine incorporation since the T cells were from a line. Accordingly, 1 μCi [^3H]thymidine per well was added during the last 14 hours of a 3-day incubation period and the cells were harvested, and the radioactivity counted. For presentation of HEL peptide (FIG. 2(c)) and Ig-HEL (FIG. 2(d)), T cell activation was assessed by measuring IL-2 production as the HEL-specific cells were from a hybridoma. Accordingly, after 24 hours incubation IL-2 was measured in 100 μl supernatant by ELISA. […]
# Splenic cells = assay: IFNγ response of splenic cells from 14 week old mice; settings: INSβ peptide 18 μM, Ig-INSβ chimeras 1 μM; 24 hours; no rIL-10
# Description: (§2) Detection of IL-10 and IFNγ was performed according to BD Pharmingen's standard protocol. The capture Abs were as follows: rat anti-mouse IL-10, JES5-2A5 and rat anti-mouse IFNγ, R4-6A2. The biotinylated anti-cytokine Abs were as follows: rat anti-mouse IL-10, JES5-16E3 and rat anti-mouse IFNγ, XMG1.2. Both antibodies were purchased from BD Pharmingen (San Diego, Calif.). ELISA for the detection of active TGFβ was preformed using the human TGFβ1 DuoSet kit (R&D systems, Minneapolis, Minn.) according to the manufacturer's instructions. […] All assays were read on a SpectraMAX 190 counter. Graded amounts of recombinant mouse IFNγ, IL-10, and TGFβ were included in all experiments for construction of standard curves. The cytokine concentration in culture supernatants was interpolated from the linear portion of the standard curve.
# To test this premise, splenic and islet cells from 14 week old mice were stimulated with agg Ig-INSβ, which induces IL-10 production by the presenting APCs and secretion of IFNγ was measured. Splenic (a) and islet (b) cells (5×10^5 cells/well) from 14 week old female NOD mice were stimulated with the indicated antigen in the presence or absence of 1 ng of rIL-10 for 24 hours. The supernatant (100 μl/well) was used to measure IFNγ by ELISA as indicated in “Materials and Methods”. […]
# islet cells = assay: IFNγ response of islet cells from 14 week old mice; settings: INSβ peptide 18 μM, Ig-INSβ chimeras 1 μM; 24 hours; no rIL-10
# Description: as §2
# Islet-infiltrating cells were derived from 14 week old female NOD mice by collagenase digestion as previously described (36). […] Viability of the cells was determined by trypan blue exclusion.
# To test this premise, splenic and islet cells from 14 week old mice were stimulated with agg Ig-INSβ, which induces IL-10 production by the presenting APCs and secretion of IFNγ was measured. […]
# HEL-specific hybridoma = assay: Presentation to HEL-specific T cell hybridoma (IL-2 production); settings: irradiated NOD splenocytes; peptides 10 μM, Ig-chimeras 1 μM; 24 hours
# Description: T cell hybridomas: A HEL-specific T cell line was fused with the αβ TCR negative thymoma BW1100 (ATCC) using polyethylene glycol 4000 (Sigma, St. Louis, Mo.). Hybrids were then selected by supplementing the culture media with hypoxanthine-azaserine (Sigma). Resulting hybridomas were then screened for reactivity to HEL peptide by testing for production of IL-2 in the supernatant following stimulation with irradiated (3000 rads) splenocytes in the presence of 15 μg/ml HEL peptide. Positive hybridomas were then cloned by limiting dilution and used to assess presentation of HEL peptide and Ig-HEL chimera.
# as §1
Sequence,proliferation of the INSβ-specific T cell line [1],IFNγ response of splenic T cells (Splenic cells),IFNγ response of islet T cells (islet cells),stimulation of HEL-specific hybridoma (IL-2 production) (HEL-specific hybridoma)
SHLVEALYLVCGERG [INSβ peptide],proliferated significantly,developed IFNγ responses,developed IFNγ responses,
AMKRHGLDNYRGYSL [HEL peptide],unable to induce proliferation,,,able to stimulate the HEL-specific hybridoma
